{
  "source": "patent US6090780A",
  "about": "(Chandon Prasad, priority 1999, dated 2000)",
  "type_in_all_cases": "in vivo",
  "key": {"[1]": {"system": "Sprague-Dawley rats", "assay": "Effect of intraperitoneal and oral administration of CHP on food intake", "conditions": "for food intake, mean ± SEM, n = 6: 7 h after 21 h fast; for effect on food consumption: up to 50 mg/Kg of body weight", "procedure": "Thirty-six outbred adult male Sprague-Dawley rats, certified virus free, obtained from Hilltop Laboratories, New York, N.Y. were housed in a temperature and light controlled room for a period of at least seven days after arrival. Sprague-Dawley rats are white albino outbred rats. The temperature of the room was maintained at about 20-21° C. The lights in the room were cycled between on and off every twelve hours. The rats were allowed free access to Purina Chow food and water prior to beginning the experiment. For the experiment rats were divided into six groups of six rats each. […] The amount of CHP in each dose was based on the body weight of the individual rat. Rats were fasted for about 21 hours from food but not water. Oral dosages of CHP were administered using a gavage tube according to each rat group. The rats were then given access to Purina Chow and water for the next seven hours. Food intake during the seven hours was measured in grams per rat and averaged for each group. […] At the end of this period, the experiment was repeated using intraperitoneal administration."}, "[2]": {"system": "C57BL mice", "assay": "Voluntary alcohol consumption in alcohol experienced mice (two-bottle choice)", "conditions": "for ETHANOL PREFERENCE (%): 7 days", "procedure": "Forty adult male C57BL mice were obtained from Jackson Laboratories and housed individually in light controlled rooms for a period of at least ten days prior to beginning the experiment with free access to Purina Chow and water. The lights were cycled on and off every twelve hour period. The mice were divided into four groups of ten. Each room was fitted with two 250 ml bottles having drip proof drinking spouts on both sides of a food bin containing Purina Chow. Both bottles contained 6% (V/V) ethanol in water and were the only source of fluid available. Mice were allowed to drink for seven days. On the eighth day, one bottle containing ethanol in water was removed and replaced with a 250 ml bottle containing water. […] The bottles were frequently exchanged to discourage positional preference. Fluid intake from each bottle was recorded after an additional 7 days. % Ethanol preference was calculated for each group."}, "[3]": {"system": "C57BL mice", "assay": "Voluntary alcohol consumption in alcohol naive mice (two-bottle choice)", "conditions": "for % ETHANOL PREFERENCE (mean ± SEM): 7 days", "procedure": "Forty adult male C57BL mice were obtained from Jackson Laboratories and housed individually in light controlled rooms for a period of at least ten days after arrival with free access to Purina Chow and water. The lights were cycled on and off every twelve hour period. Mice were divided into four groups of ten. Each room was fitted with two 250 ml bottles having drip proof drinking spouts on both sides of a food bin containing Purina Chow. One bottle contained 6% (V/V) ethanol in water whereas the other bottle contained water. […] The two bottles were frequently exchanged with each other to minimize positional preference. Fluid intake from each bottle was recorded after 7 days.\nEthanol preference was calculated as ethanol intake/(ethanol intake+water intake)×100."}, "[4]": {"conditions": "CHP 1 μg/ml fluid in each bottle"}, "[5]": {"conditions": "CHP 5 μg/ml fluid in each bottle"}, "[6]": {"conditions": "CHP 10 μg/ml fluid in each bottle"}},
  "data": [
    {"substance": "Histidyl-proline diketopiperazine [CHP]", "values": [
      {"measurement": "food intake, mean ± SEM, n = 6", "setting": "[1]; intraperitoneal, 1 mg/kg of body weight", "value": "17.6 ± 3.6", "unit": "g/rat"},
      {"measurement": "food intake, mean ± SEM, n = 6", "setting": "[1]; intraperitoneal, 5 mg/kg of body weight", "value": "14.2 ± 0.7", "unit": "g/rat"},
      {"measurement": "food intake, mean ± SEM, n = 6", "setting": "[1]; intraperitoneal, 10 mg/kg of body weight", "value": "14.1 ± 2.9", "unit": "g/rat"},
      {"measurement": "food intake, mean ± SEM, n = 6", "setting": "[1]; intraperitoneal, 20 mg/kg of body weight", "value": "14.4 ± 1.0", "unit": "g/rat"},
      {"measurement": "food intake, mean ± SEM, n = 6", "setting": "[1]; intraperitoneal, 50 mg/kg of body weight", "value": "14.7 ± 1.2", "unit": "g/rat"},
      {"measurement": "effect on food consumption", "setting": "[1]; intraperitoneal, ANOVA F=1.86, p=0.13", "value": "no significant effect"},
      {"measurement": "food intake, mean ± SEM, n = 6", "setting": "[1]; oral, 1 mg/kg of body weight", "value": "14.3 ± 2.2", "unit": "g/rat"},
      {"measurement": "food intake, mean ± SEM, n = 6", "setting": "[1]; oral, 5 mg/kg of body weight", "value": "14.7 ± 1.2", "unit": "g/rat"},
      {"measurement": "food intake, mean ± SEM, n = 6", "setting": "[1]; oral, 10 mg/kg of body weight", "value": "13.1 ± 2.1", "unit": "g/rat"},
      {"measurement": "food intake, mean ± SEM, n = 6", "setting": "[1]; oral, 20 mg/kg of body weight", "value": "15.1 ± 2.3", "unit": "g/rat"},
      {"measurement": "food intake, mean ± SEM, n = 6", "setting": "[1]; oral, 50 mg/kg of body weight", "value": "15.7 ± 1.7", "unit": "g/rat"},
      {"measurement": "effect on food consumption", "setting": "[1]; oral, ANOVA F=0.92", "value": "no significant effect"},
      {"measurement": "alcohol preference after CHP administration", "setting": "[2]; ANOVA: F=3.88, p=0.0195", "value": "dose dependence decrease"},
      {"measurement": "ETHANOL PREFERENCE (%)", "setting": "[2]; [4]", "value": 58, "unit": "%"},
      {"measurement": "ETHANOL PREFERENCE (%)", "setting": "[2]; [5]", "value": 54, "unit": "%"},
      {"measurement": "ETHANOL PREFERENCE (%)", "setting": "[2]; [6]", "value": 40, "unit": "%"},
      {"measurement": "effect on average daily fluid intake", "setting": "[3]; ANOVA: F=0.09, p=0.96", "value": "did not effect"},
      {"measurement": "alcohol preference after CHP administration", "setting": "[3]; ANOVA: F=3.73, p=0.019", "value": "dose dependence decrease"},
      {"measurement": "AVERAGE FLUID INTAKE", "setting": "[3]; [4]", "value": 2.9, "unit": "mL/day"},
      {"measurement": "% ETHANOL PREFERENCE (mean ± SEM)", "setting": "[3]; [4]", "value": "29 ± 6", "unit": "%"},
      {"measurement": "AVERAGE FLUID INTAKE", "setting": "[3]; [5]", "value": 2.8, "unit": "mL/day"},
      {"measurement": "% ETHANOL PREFERENCE (mean ± SEM)", "setting": "[3]; [5]", "value": "23 ± 6", "unit": "%"},
      {"measurement": "AVERAGE FLUID INTAKE", "setting": "[3]; [6]", "value": 2.7, "unit": "mL/day"},
      {"measurement": "% ETHANOL PREFERENCE (mean ± SEM)", "setting": "[3]; [6]", "value": 15, "unit": "%"}
    ]}
  ]
}
